Broadly, the pIC50 is the negative decadic logarithm of the IC50, by convention in mol/L. What is called pEC50 is −log10 of the EC50, conventionally taken in molar units. A lower pEC50 goes with a large EC50.

Data on twelve molecules can be found in ChEMBL document CHEMBL5210121, “Affinity On-target Cellular Literature for EUbOPEN Chemogenomics Library wave 3” (2023).

Each structure is given as a SMILES string. pEC50, pIC50: −log10 of the molar value.

In assay [1] the target is Dual specificity protein kinase CLK1 (Homo sapiens, UniProt P49759). The experiment in a line: Affinity On-target Cellular interaction (NanoBRET assay (HEK293T cells)) EUB0000724a CLK1. More on the design: mode of action Inhibitor, recommended concentration 1 uM. (In general: BRET reads energy transfer from a luciferase to a nearby fluorophore.)
Assay [2] has as its target Epithelial discoidin domain-containing receptor 1 (Homo sapiens, UniProt Q08345). The experiment in a line: Affinity On-target Cellular interaction (NanoBRET assay (HEK293T cells)) EUB0000156b DDR1. More on the design: mode of action Negative control for DDR-TRK-1 (D2202-1), recommended concentration 1 uM.
The target in assay [3] is Discoidin domain-containing receptor 2 (Homo sapiens, UniProt Q16832). The experiment in a line: Affinity On-target Cellular interaction (NanoBRET assay (HEK293T cells)) EUB0000156b DDR2. Also noted: mode of action Negative control for DDR-TRK-1 (D2202-1), recommended concentration 1 uM.
The target in assay [4] is High affinity nerve growth factor receptor (Homo sapiens, UniProt P04629). Put plainly: Affinity On-target Cellular interaction (NanoBRET assay (HEK293T cells)) EUB0000156b NTRK1. Also noted: mode of action Negative control for DDR-TRK-1 (D2202-1), recommended concentration 1 uM.
Assay [5] addresses BDNF/NT-3 growth factors receptor (Homo sapiens, UniProt Q16620). The experiment in a line: Affinity On-target Cellular interaction (NanoBRET assay (HEK293T cells)) EUB0000156b NTRK2. More on the design: mode of action Negative control for DDR-TRK-1 (D2202-1), recommended concentration 1 uM.
Assay [6] addresses T1, Protein AF-9 (Homo sapiens, UniProt P42568).
Assay [7] deals with T1, Protein AF-9. The experiment in a line: Affinity On-target Cellular interaction (NanoBRET assay (HEK293T cells)) EUB0000732a MLLT3. Also noted: mode of action Negative control for PFI-6, recommended concentration 1 uM.
The target of assay [8] is T2, NADH dehydrogenase [ubiquinone] iron-sulfur protein 2, mitochondrial (Homo sapiens, UniProt O75306). The experiment in a line: Affinity On-target Cellular interaction (Cellular activity assay (measurement of ATP levels in presence of complex II substrate succinate in H1299 cells)) EUB0000752a NDUFS2. The class given is cell-based. More on the design: mode of action Inhibitor, recommended concentration 1 uM.

The next assay has as its target Protein ENL (Homo sapiens, UniProt Q03111). The experiment in a line: Affinity On-target Cellular interaction (NanoBRET assay (HEK293T cells)) EUB0000283b MLLT1. More on the design: mode of action Inhibitor, recommended concentration 1 uM.
In assay [9] the target is Protein farnesyltransferase subunit beta (Homo sapiens, UniProt P49356). Put plainly: Affinity On-target Cellular interaction (Western Blot (inhibition of Ras in NIH 3T3 H-Ras cells)) EUB0000289c FNTB. It is filed as cell-based. Also noted: mode of action Inhibitor, recommended concentration 1 uM.
Assay [10] addresses T2, NADH dehydrogenase [ubiquinone] iron-sulfur protein 2, mitochondrial. Put plainly: Affinity On-target Cellular interaction (Cellular activity assay (measurement of ATP levels in presence of complex II substrate succinate in H1299 cells)) EUB0000748a NDUFS2. Also noted: mode of action Negative control for BAY-179, recommended concentration 1 uM. It is filed as cell-based.

Assay [11] addresses Mitogen-activated protein kinase 1 (Homo sapiens, UniProt P28482).
Assay [12] in a line: Affinity On-target Cellular interaction (Measles Virus Inhibition Assay) EUB0000745a DHODH.
In assay [13] the target is Cytochrome P450 11B2, mitochondrial (Homo sapiens, UniProt P19099). The experiment in a line: Affinity On-target Cellular interaction (HTRF-based assay (V79 cell lines, CisBio)) EUB0000733a CYP11B2. More on the design: mode of action Negative control for MSD-CYP11B2, recommended concentration 100 nM. In general terms: In TR-FRET formats the signal depends on donor and acceptor labels being close together.

The nature of assay [14]: Affinity On-target Cellular interaction (Cell-based assay) EUB0000315b MGAT2.

T1 sequence (P42568 whole entry): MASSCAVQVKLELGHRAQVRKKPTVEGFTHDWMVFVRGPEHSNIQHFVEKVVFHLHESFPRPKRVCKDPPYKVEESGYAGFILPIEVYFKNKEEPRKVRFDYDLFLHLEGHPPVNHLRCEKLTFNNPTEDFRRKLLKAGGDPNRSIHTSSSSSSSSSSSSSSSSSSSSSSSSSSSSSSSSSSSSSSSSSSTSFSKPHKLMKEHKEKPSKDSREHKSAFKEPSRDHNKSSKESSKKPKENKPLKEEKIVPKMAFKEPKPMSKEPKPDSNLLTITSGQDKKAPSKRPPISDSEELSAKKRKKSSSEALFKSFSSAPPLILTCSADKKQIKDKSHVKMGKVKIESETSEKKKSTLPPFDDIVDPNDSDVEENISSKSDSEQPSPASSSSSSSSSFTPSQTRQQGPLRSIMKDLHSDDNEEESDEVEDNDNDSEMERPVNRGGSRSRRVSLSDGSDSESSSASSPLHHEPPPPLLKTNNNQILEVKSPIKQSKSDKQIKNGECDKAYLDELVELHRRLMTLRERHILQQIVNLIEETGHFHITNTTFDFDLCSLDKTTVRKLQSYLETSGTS
T2 sequence (O75306 whole entry): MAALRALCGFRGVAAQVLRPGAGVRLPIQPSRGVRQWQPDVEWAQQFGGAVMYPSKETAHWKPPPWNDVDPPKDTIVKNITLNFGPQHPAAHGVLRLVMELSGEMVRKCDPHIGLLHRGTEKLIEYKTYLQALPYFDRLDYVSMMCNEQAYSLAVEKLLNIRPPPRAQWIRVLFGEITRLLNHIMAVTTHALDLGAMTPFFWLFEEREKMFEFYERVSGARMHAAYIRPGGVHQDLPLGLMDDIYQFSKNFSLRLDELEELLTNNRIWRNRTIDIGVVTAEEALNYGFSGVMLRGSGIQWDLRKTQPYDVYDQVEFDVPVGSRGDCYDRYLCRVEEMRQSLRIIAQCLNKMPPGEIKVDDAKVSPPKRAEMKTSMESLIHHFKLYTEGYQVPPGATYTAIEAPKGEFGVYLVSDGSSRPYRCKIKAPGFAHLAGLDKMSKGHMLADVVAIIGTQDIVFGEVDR
Chain of Dual specificity protein kinase CLK1 (P49759 whole entry, the tested form may be a part): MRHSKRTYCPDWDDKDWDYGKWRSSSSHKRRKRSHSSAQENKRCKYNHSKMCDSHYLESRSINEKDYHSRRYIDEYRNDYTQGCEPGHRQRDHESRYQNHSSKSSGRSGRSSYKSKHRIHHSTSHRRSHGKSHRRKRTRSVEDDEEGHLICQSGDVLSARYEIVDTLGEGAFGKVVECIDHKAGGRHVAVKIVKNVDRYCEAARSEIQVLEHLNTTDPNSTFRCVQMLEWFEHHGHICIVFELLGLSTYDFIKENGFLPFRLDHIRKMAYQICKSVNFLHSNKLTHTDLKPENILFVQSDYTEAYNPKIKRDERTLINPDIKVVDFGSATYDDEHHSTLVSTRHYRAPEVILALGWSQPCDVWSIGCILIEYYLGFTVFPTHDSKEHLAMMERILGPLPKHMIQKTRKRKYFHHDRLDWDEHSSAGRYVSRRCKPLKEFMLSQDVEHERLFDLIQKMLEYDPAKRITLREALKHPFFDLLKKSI
Chain of BDNF/NT-3 growth factors receptor (Q16620 whole entry): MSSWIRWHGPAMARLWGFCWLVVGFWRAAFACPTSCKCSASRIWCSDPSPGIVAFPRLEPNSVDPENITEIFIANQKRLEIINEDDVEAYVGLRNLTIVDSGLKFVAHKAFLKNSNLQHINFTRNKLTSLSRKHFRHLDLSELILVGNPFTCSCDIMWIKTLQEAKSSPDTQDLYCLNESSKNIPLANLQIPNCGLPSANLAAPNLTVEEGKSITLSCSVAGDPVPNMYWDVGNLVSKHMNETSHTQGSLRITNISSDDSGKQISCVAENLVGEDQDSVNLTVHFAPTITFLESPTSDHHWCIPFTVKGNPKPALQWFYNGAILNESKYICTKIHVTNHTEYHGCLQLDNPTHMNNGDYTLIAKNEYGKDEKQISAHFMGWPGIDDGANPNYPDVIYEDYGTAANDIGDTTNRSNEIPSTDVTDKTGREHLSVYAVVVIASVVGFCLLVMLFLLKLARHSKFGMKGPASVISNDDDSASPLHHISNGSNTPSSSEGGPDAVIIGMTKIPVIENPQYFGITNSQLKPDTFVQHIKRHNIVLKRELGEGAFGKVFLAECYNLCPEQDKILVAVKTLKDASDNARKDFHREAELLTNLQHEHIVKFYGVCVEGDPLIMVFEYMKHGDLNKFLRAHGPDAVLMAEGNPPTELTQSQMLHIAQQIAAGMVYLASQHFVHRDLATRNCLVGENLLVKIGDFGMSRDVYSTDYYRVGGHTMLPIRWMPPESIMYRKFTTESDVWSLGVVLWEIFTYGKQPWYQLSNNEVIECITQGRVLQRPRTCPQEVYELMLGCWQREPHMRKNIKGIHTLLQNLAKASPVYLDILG
Chain of Cytochrome P450 11B2, mitochondrial (P19099 whole entry): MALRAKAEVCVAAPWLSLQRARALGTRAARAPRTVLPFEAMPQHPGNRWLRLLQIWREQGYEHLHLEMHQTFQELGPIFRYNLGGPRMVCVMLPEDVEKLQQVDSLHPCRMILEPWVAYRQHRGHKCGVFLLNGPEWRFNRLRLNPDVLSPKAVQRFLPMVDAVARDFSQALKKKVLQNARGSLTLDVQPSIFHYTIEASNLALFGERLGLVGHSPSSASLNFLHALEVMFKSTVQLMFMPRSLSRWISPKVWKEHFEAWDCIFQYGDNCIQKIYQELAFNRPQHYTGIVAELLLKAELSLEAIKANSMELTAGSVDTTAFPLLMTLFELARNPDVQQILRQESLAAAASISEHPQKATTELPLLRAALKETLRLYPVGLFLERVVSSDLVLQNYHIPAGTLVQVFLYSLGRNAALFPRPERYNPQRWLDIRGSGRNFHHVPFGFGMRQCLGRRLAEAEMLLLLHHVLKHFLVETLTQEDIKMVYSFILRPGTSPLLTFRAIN
Chain of Protein ENL (Q03111 whole entry): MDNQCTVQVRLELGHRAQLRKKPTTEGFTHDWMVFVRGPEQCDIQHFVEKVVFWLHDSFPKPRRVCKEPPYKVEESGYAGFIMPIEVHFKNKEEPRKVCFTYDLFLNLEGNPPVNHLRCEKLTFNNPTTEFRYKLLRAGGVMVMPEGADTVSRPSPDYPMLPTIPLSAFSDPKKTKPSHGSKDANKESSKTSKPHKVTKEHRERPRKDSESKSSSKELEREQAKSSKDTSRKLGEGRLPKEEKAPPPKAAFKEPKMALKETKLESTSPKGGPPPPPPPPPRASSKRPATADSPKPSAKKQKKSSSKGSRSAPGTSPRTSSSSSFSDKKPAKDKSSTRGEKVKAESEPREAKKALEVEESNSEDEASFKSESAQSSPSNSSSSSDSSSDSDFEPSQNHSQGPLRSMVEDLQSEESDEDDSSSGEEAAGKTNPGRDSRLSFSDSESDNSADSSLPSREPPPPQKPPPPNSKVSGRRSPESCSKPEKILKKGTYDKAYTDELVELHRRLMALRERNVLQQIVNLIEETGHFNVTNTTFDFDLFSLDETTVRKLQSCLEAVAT
Chain of Discoidin domain-containing receptor 2 (Q16832 whole entry, the tested form may be a part): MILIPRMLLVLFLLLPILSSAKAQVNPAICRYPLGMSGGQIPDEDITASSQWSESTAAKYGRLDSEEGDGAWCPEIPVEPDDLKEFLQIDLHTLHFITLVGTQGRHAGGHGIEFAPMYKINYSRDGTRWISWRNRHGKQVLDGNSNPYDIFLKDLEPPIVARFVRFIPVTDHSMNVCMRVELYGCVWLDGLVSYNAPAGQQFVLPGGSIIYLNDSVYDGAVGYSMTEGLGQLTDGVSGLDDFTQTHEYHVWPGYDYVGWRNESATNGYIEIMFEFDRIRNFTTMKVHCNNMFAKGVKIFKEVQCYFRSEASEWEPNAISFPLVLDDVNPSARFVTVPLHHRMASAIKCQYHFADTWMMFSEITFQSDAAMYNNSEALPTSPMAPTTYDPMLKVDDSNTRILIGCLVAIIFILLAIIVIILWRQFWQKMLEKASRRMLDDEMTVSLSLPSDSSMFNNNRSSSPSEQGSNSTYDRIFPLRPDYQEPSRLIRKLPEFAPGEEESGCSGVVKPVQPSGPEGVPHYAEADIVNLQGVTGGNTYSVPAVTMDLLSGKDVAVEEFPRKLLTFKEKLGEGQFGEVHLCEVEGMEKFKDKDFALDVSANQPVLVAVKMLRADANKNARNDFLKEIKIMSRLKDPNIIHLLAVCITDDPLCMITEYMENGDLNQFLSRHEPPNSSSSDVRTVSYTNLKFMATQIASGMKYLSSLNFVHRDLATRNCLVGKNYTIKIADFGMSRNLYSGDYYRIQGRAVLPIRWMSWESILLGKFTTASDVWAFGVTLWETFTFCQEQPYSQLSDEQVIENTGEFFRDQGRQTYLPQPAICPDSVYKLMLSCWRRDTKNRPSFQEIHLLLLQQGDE
Chain of Protein farnesyltransferase subunit beta (P49356 whole entry): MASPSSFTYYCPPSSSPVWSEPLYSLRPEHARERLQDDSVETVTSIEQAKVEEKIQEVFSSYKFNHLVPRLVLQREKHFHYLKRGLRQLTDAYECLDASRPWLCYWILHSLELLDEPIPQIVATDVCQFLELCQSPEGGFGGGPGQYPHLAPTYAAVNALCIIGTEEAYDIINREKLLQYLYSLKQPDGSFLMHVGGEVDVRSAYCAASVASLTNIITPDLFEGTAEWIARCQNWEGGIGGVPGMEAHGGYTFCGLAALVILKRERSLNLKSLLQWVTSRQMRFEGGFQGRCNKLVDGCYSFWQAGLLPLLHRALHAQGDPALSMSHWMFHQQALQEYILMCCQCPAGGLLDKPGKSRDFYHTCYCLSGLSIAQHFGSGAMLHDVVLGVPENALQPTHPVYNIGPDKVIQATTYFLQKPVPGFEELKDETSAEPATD

Molecule `COc1cc(Nc2nccc(-c3cnn4nc(OC)ccc34)n2)cc(C(F)(F)F)c1` showed a pIC50 in assay [1] of 6.78.

In the case of `CN1CCN(Cc2cc(NC(=O)c3ccc4c(c3)CN(c3ccccc3)CC4)cc(C(F)(F)F)c2)CC1`, the pIC50 in assay [2] is 4.58; in [3] it was 5.06; in assay [4], 4.71; in assay [5], 5.17. On to `CN(C)C(=O)c1ccc(-c2cc(C(=O)N[C@@H]3CCc4ccccc43)no2)cc1O`, for which, on Protein AF-9 [6], the pIC50 was 6.12. Turning to `CN(C)C(=O)c1ccc(-c2cc(C(=O)N(C)C3CCCC3)no2)cc1O`, the pIC50 on Protein AF-9 [7] is less than 4.52. In the case of `c1ccc2oc(-c3csc(C4CCN(Cc5nc6ncccc6[nH]5)CC4)n3)cc2c1`, the pIC50 in [8] was 7.10. At Protein ENL, `C[C@H]1CCCN1Cc1nc2cc(NC(=O)c3ccc4cnccc4c3)ccc2[nH]1` showed a pIC50 of 6.30.

`Cn1cncc1[C@](O)(COc1ccc(C#N)cc1-c1ccc(OC(F)(F)F)cc1)c1ccc(C#N)cc1` [ABT-100] had a pEC50 in [9] of 9.14. As for `Cn1c(-c2csc(C3CCN(CC4=NC5N=CC=CC5N4)CC3)n2)nc2ccccc21` (stereo not given) [BAY-070], in assay [10], the negative-log IC50 (pIC50) is less than 4.52. Consider `C[C@@H](NC(=O)Nc1cc2[nH]ncc2c(CO)n1)c1ccccc1` [ERKi], for which, in [11], the pIC50 is 6.07.

`Cc1c(Oc2ccc(F)cc2)c(OC(C)C)nn1-c1ccc(C2CC2)cn1` [IPP/CNRS-A019] had a pIC50 in assay [12] of 5.92. Turning to `FC(F)(F)c1ccc2c(c1)nc(-c1cccnc1)n2C1CC1` [MSD-CYP11B2-Negative-control], in assay [13], the pIC50 was less than 5.00.

`Cn1nc(C(F)(F)F)cc1-c1cnc(N2CCc3cc(S(=O)(=O)Nc4c(F)cc(Cl)cc4F)cc(N4CCCC4=O)c32)nc1` [TP-020] had a negative logarithm of the IC50 (pIC50) in assay [14] of 6.80.
